Measurements: ChEMBL document CHEMBL1122370 (J Med Chem, 1983)
Several values for one entry are separate records, joined by “and”; a condition that tells them apart may be missing. Identical values can stand only once.

Key:
Mus musculus [1] = assay: Average weight change in mouse after treating with 180 mg/kg dose for 7 days.; type: functional
L1210 [2] = assay: In vivo anti tumor activity against L1210 leukemia in 5 mice measured as Increased life span at 45 mg/kg; type: functional; conditions: Mus musculus
L1210 [3] = assay: In vivo anti tumor activity against L1210 leukemia in 5 mice measured as Increased life span at 180 mg/kg; type: functional; conditions: Mus musculus
L1210 [4] = assay: In vivo antitumor activity against L1210 leukemia in 5 mice measured as median survival range at 90 mg/kg; Value ranges from (13-19); type: functional, Mus musculus
Mus musculus [5] = assay: Average weight of the mouse after treating with 90 mg/kg dose for 1 day; type: functional
Mus musculus [6] = assay: Average weight of the mouse after treating with 180 mg/kg dose for 1 day; type: functional
Mus musculus [7] = assay: Average weight change in mouse after treating with 90 mg/kg dose for 7 days.; type: functional
Mus musculus [8] = assay: Average weight of the mouse after treating with 45 mg/kg dose for 1 day; type: functional
L1210 [9] = assay: In vivo antitumor activity against L1210 leukemia in 5 mice measured as median survival range at 180 mg/kg; Value ranges from (14-23); type: functional, Mus musculus
L1210 [10] = assay: In vivo anti tumor activity against L1210 leukemia in 5 mice measured as Increased life span at 90 mg/kg; type: functional; conditions: Mus musculus
L1210 [11] = assay: In vivo antitumor activity against L1210 leukemia in 5 mice measured as median survival range at 45 mg/kg; Value ranges from (11-13); type: functional, Mus musculus
Mus musculus [12] = assay: Average weight of the mouse after treating with 40 mg/kg dose for 1 day.; type: functional; parameters: unit not given here
L1210 [13] = assay: In vivo antitumor activity against L1210 leukemia in 5 mice measured as Increased life span at 80 mg/kg.; type: functional; conditions: Mus musculus
Mus musculus [14] = assay: Average weight of the mouse after treating with 120 mg/kg dose for 1 day.; type: functional
Mus musculus [15] = assay: Average weight of the mouse after treating with 120 mg/kg dose for 7 days.; type: functional
L1210 [16] = assay: In vivo antitumor activity against L1210 leukemia in 5 mice measured as median survival range at 140 mg/kg; Value ranges from(8-27).; type: functional, Mus musculus
L1210 [17] = assay: In vivo antitumor activity against L1210 leukemia in 5 mice measured as Increased life span at 20 mg/kg.; type: functional; conditions: Mus musculus
L1210 [18] = assay: In vivo antitumor activity against L1210 leukemia in 14 mice measured as T/C values(days); T/C = 14/9; type: functional, Mus musculus
Mus musculus [19] = assay: Average weight of the mouse after treating with 80 mg/kg dose for 1 day.; type: functional; parameters: unit not given here
L1210 [20] = assay: In vivo antitumor activity against L1210 leukemia in 5 mice measured as median survival range at 40 mg/kg; Value ranges from(13-19); type: functional, Mus musculus
Mus musculus [21] = assay: Average weight of the mouse after treating with 80 mg/kg dose for 7 days.; type: functional; parameters: unit not given beside the values
L1210 [22] = assay: In vivo antitumor activity against L1210 leukemia in 15 mice measured as T/C values(days); T/C = 15/9; type: functional, Mus musculus
L1210 [23] = assay: In vivo antitumor activity against L1210 leukemia in 23 mice measured as T/C values(days); T/C = 23/9; type: functional, Mus musculus
L1210 [24] = assay: In vivo antitumor activity against L1210 leukemia in 5 mice measured as T/C values(days); T/C = 21/9; type: functional, Mus musculus
L1210 [25] = assay: In vivo antitumor activity against L1210 leukemia in 5 mice measured as Increased life span at 140 mg/kg.; type: functional; conditions: Mus musculus
L1210 [26] = assay: In vivo antitumor activity against L1210 leukemia in 5 mice measured as median survival range at 80 mg/kg; Value ranges from(13-26); type: functional, Mus musculus
L1210 [27] = assay: In vivo antitumor activity against L1210 leukemia in 5 mice measured as median survival range at 20 mg/kg; Value ranges from(11-14); type: functional, Mus musculus
L1210 [28] = assay: In vivo antitumor activity against L1210 leukemia in 10 mice measured as Increased life span at 120 mg/kg.; type: functional; conditions: Mus musculus
L1210 [29] = assay: In vivo antitumor activity against L1210 leukemia in 10 mice measured as median survival range at 120 mg/kg; Value ranges from(13-36); type: functional, Mus musculus
Mus musculus [30] = assay: Average weight of the mouse after treating with 40 mg/kg dose for 7 days.; type: functional; parameters: unit not given beside the values
Mus musculus [31] = assay: Average weight of the mouse after treating with 20 mg/kg dose for 7 days.; type: functional; parameters: unit not given beside the values
Mus musculus [32] = assay: Average weight of the mouse after treating with 140 mg/kg dose for 7 days.; type: functional
L1210 [33] = assay: In vivo antitumor activity against L1210 leukemia in 22 mice measured as T/C values(days); T/C = 22/9; type: functional, Mus musculus
Mus musculus [34] = assay: Average weight of the mouse after treating with 20 mg/kg dose for 1 day.; type: functional; parameters: unit not given here
Mus musculus [35] = assay: Average weight of the mouse after treating with 140 mg/kg dose for 1 day.; type: functional
L1210 [36] = assay: In vivo antitumor activity against L1210 leukemia in 5 mice measured as Increased life span at 40 mg/kg.; type: functional; conditions: Mus musculus
Mus musculus [37] = assay: Average weight of the mouse after treating with 160 mg/kg dose for 1 day.; type: functional
Mus musculus [38] = assay: Average weight of the mouse after treating with 160 mg/kg dose for 7 days.; type: functional
L1210 [39] = assay: In vivo antitumor activity against L1210 leukemia in 5 mice measured as median survival range at 280 mg/kg; Value ranges from(14-20); type: functional, Mus musculus
Mus musculus [40] = assay: Average weight of the mouse after treating with 240 mg/kg dose for 7 days.; type: functional
Mus musculus [41] = assay: In vivo antitumor activity against L1210 leukemia in 5 mice measured as median survival range at 200 mg/kg; Value ranges from(13-18); type: functional
L1210 [42] = assay: In vivo antitumor activity against L1210 leukemia in 10 mice measured as median survival range at 160 mg/kg; Value ranges from(10-16).; type: functional, Mus musculus
Mus musculus [43] = assay: Average weight of the mouse after treating with 280 mg/kg dose for 7 days.; type: functional
L1210 [44] = assay: In vivo antitumor activity against L1210 leukemia in 5 mice measured as Increased life span at 240 mg/kg.; type: functional; conditions: Mus musculus
L1210 [45] = assay: In vivo antitumor activity against L1210 leukemia in 5 mice measured as median survival range at 240 mg/kg; Value ranges from(13-18); type: functional, Mus musculus
L1210 [46] = assay: In vivo antitumor activity against L1210 leukemia in 10 mice measured as Increased life span at 160 mg/kg.; type: functional; conditions: Mus musculus
Mus musculus [47] = assay: Average weight of the mouse after treating with 200 mg/kg dose for 7 days.; type: functional
Mus musculus [48] = assay: Average weight of the mouse after treating with 200 mg/kg dose for 1 day.; type: functional
L1210 [49] = assay: In vivo antitumor activity against L1210 leukemia in 10 mice measured as median survival range at 120 mg/kg; Value ranges from(9-15); type: functional, Mus musculus
Mus musculus [50] = assay: In vivo antitumor activity against L1210 leukemia in 16 mice measured as T/C values(days); T/C = 16/9; type: functional
L1210 [51] = assay: In vivo antitumor activity against L1210 leukemia in 13 mice measured as T/C values(days); T/C = 13/9; type: functional, Mus musculus
Mus musculus [52] = assay: Average weight of the mouse after treating with 280 mg/kg dose for 1 day.; type: functional
Mus musculus [53] = assay: In vivo antitumor activity against L1210 leukemia in 5 mice measured as Increased life span at 200 mg/kg.; type: functional
L1210 [54] = assay: In vivo antitumor activity against L1210 leukemia in 17 mice measured as T/C values(days); T/C = 17/9; type: functional, Mus musculus
Mus musculus [55] = assay: Average weight of the mouse after treating with 240 mg/kg dose for 1 day.; type: functional
L1210 [56] = assay: In vivo antitumor activity against L1210 leukemia in 5 mice measured as Increased life span at 280 mg/kg.; type: functional; conditions: Mus musculus

CCCCCCCCOC(=O)CCC(NC(=O)c1cc(Cl)c(N(C)Cc2cnc3nc(N)nc(N)c3n2)c(Cl)c1)C(=O)OCCCCCCCC (stereo not given)
Weight change (Mus musculus [1]): 5.8
ILS at 45 mg/kg (L1210 [2]): 44%
ILS at 180 mg/kg (L1210 [3]): 122%
Range (L1210 [4]): 19
Average weight (Mus musculus [5]): 28.2
Average weight (Mus musculus [6]): 28.2
Weight change (Mus musculus [7]): 1.4 and 3.6
Average weight (Mus musculus [8]): 26.2
Range (L1210 [9]): 23
ILS at 90 mg/kg (L1210 [10]): 66%
Range (L1210 [11]): 13

CCCC(C)OC(=O)CCC(NC(=O)c1cc(Cl)c(N(C)Cc2cnc3nc(N)nc(N)c3n2)c(Cl)c1)C(=O)OC(C)CCC (stereo not given)
Average weight (Mus musculus [12]): 20.6
ILS at 80 mg/kg (L1210 [13]): 133%
Average weight (Mus musculus [14]): 21.5
Weight change (Mus musculus [15]): 1.4
Range (L1210 [16]): 27
ILS at 20 mg/kg (L1210 [17]): 55%
T/C (L1210 [18]): 9
Average weight (Mus musculus [19]): 21.2
Range (L1210 [20]): 19
Weight change (Mus musculus [21]): 1.5
T/C (L1210 [22]): 9
T/C (L1210 [23]): 9
T/C (L1210 [24]): 9
ILS at 140 mg/kg (L1210 [25]): 155%
Range (L1210 [26]): 26
Range (L1210 [27]): 14
ILS at 120 mg/kg (L1210 [28]): 145%
Range (L1210 [29]): 36
Weight change (Mus musculus [30]): 0.1
Weight change (Mus musculus [31]): 2.6
Weight change (Mus musculus [32]): 3.2
T/C (L1210 [33]): 22
Average weight (Mus musculus [34]): 22.1
Average weight (Mus musculus [35]): 21.6
ILS at 40 mg/kg (L1210 [36]): 66%

CN(Cc1cnc2nc(N)nc(N)c2n1)c1c(Cl)cc(C(=O)NC(CCC(=O)O)C(=O)O)cc1Cl (stereo not given)
Average weight (Mus musculus [37]): 22.5
Weight change (Mus musculus [38]): 2.9
Range (L1210 [39]): 20
Weight change (Mus musculus [40]): 2.1
Range (Mus musculus [41]): 18
Average weight (Mus musculus [14]): 22.4
Weight change (Mus musculus [15]): 2.4
Range (L1210 [42]): 16
Weight change (Mus musculus [43]): 1.4
T/C (L1210 [22]): 9
ILS at 240 mg/kg (L1210 [44]): 67%
Range (L1210 [45]): 18
ILS at 160 mg/kg (L1210 [46]): 44%
ILS at 120 mg/kg (L1210 [28]): 22%
Weight change (Mus musculus [47]): 1.8
Average weight (Mus musculus [48]): 24.2
Range (L1210 [49]): 15
T/C (Mus musculus [50]): 9
T/C (L1210 [51]): 9
Average weight (Mus musculus [52]): 21.4
ILS at 200 mg/kg (Mus musculus [53]): 78%
T/C (L1210 [54]): 9
Average weight (Mus musculus [55]): 22.4
ILS at 280 mg/kg (L1210 [56]): 89%
